{"source": "patent US20150157597A1", "about": "“NEURODEGENERATIVE DISEASE TREATMENT USING JAK/STAT INHIBITION” (Uinversity of South Florida, priority 2007, published 2015)", "key": {"STAT1": {"tested_on": "STAT1", "assay": "STAT1 phosphorylation by Western blot in primary cultured neurons", "format": "cell-based, mouse", "protocol": "(§1) Normal C57BL/6 primary cultured neuronal cells as well as STAT1-deficient primary neuronal cells were isolated and cultured as described previously (Chin et al., 1997). Normal cells were co-treated with either gp120 or Tat (250 ng/ml) with or without IFN-γ (100 U/ml) and/or JAK inhibitor (50 nM). STAT1-deficient cells were treated with HIV-1 gp120 or HIV-1 Tat (250 ng/ml) in the presence or absence of IFN-γ (100 U/ml) for 12 h. At the end of the treatment period, neuronal cells were washed in ice-cold PBS three times and lysed in ice-cold lysis buffer. After incubation for 30 mm on ice, samples were centrifuged at high speed for 15 mm, and supernatants were collected. Total protein content was estimated by using the Bio-Rad protein assay. For phosphorylation of JAK1, membranes were first hybridized with phosphospecific Tyr1022/1023 JAK1 antibody (Cell Signaling Technology, Beverly, Mass.) and then stripped and finally analyzed by total JAK1. For STAT1 phosphorylation, membranes were probed with a phospho-Ser727 STAT1 antibody (Cell Signaling Technology), stripped with stripping solution, and then re-probed with an antibody that recognizes total STAT1 (Cell Signaling Technology). […]\n(§2) Western blot was performed as described previously (Tan et al., 2002). […] Densitometric analysis was done using the Fluor-S MultiImager™ with Quantity One™ software (Bio-Rad). […]"}, "C57BL/6 mice [1]": {"tested_on": "C57BL/6 mice", "assay": "In vivo neurotoxicity, NeuN staining of cortical brain sections after i.c.v. injection", "design": "species or system mouse", "details": "24 h", "description": "(§3) Animals were anesthetized using isoflurane (chamber induction at 4-5% isoflurane, intubation and maintenance at 1-2%). After reflexes were checked to ensure that mice were unconscious, they were positioned on a stereotaxic frame (Stoelting Lab Standard) with ear-bars positioned and jaws fixed to a biting plate. The axis coordinates were taken from a mouse brain atlas, and a 5-mm sterile plastic guide cannula (21 GA; Plastic One, Inc., Roanoke, Va.) was implanted into the left lateral ventricle delimited from the stereotaxic coordinates (coordinates relative to bregma: −0.6 mm anterior/posterior, +1.2 mm medial/lateral, and −3.0 mm dorsal/ventral) using the stereotaxic device (Stoelting Lab Standard) and an attached probe (cannula) holder. IFN-γ (200 U/mouse) with HIV-1 protein gp120 (500 ng/mouse) or Tat (500 ng/mouse) or PBS (10 μl) was administered at the rate of 1 μl/min using a Hamilton syringe (modified with a solder stop to prevent over insertion of the needle) through the implanted cannula. […]\nAt sacrifice, mice were anesthetized with isofluorane and transcardially perfused with ice-cold physiological saline containing heparin (10 U/ml). […] After another cycle of washing, floating sections were mounted onto slides, dehydrated and coverslipped with Vectashield fluorescence mounting media (Vector Labs., Burlingame, Calif.). […]"}, "[2]": {"tested_on": "primary cultured neuronal cells", "assay": "Western blot band density ratio of Bcl-xL to Bax in primary neuron lysates", "format": "cell-based, mouse", "details": "12 h; for Neuronal injury, Western blot band density ratio of Bcl-xL to Bax: JAK inhibitor 50 nM, IFN-γ 100 U/ml with gp120 or Tat 250 ng/ml", "protocol": "(§4) Primary cultures of mouse cortical neurons were prepared as described previously (Chin et al., 1997). Briefly, neuronal cells were isolated from newborn C57BL16 mice and seeded in 6-well tissue-culture plates at 2×10^5 cells/well for 48 h. […] In addition, to test whether EGCG could inhibit JAK/STAT1 signaling and neuronal damage induced by gp120 or/and Tat in the presence of IFN-γ, EGCG was also employed as the co-treatment. Cell culture supernatants were used for LDH assay while cell lysates were used for Western blot analysis of Bcl-xL and Bax proteins.\n(§5) Normal C57BL/6 primary cultured neuronal cells as well as STAT1-deficient primary neuronal cells were isolated and cultured as described previously (Chin et al., 1997). Normal cells were co-treated with either gp120 or Tat (250 ng/ml) with or without IFN-γ (100 U/ml) and/or JAK inhibitor (50 nM). STAT1-deficient cells were treated with HIV-1 gp120 or HIV-1 Tat (250 ng/ml) in the presence or absence of IFN-γ (100 U/ml) for 12 h. At the end of the treatment period, neuronal cells were washed in ice-cold PBS three times and lysed in ice-cold lysis buffer. After incubation for 30 mm on ice, samples were centrifuged at high speed for 15 mm, and supernatants were collected. Total protein content was estimated by using the Bio-Rad protein assay. For phosphorylation of JAK1, membranes were first hybridized with phosphospecific Tyr1022/1023 JAK1 antibody (Cell Signaling Technology, Beverly, Mass.) and then stripped and finally analyzed by total JAK1. For STAT1 phosphorylation, membranes were probed with a phospho-Ser727 STAT1 antibody (Cell Signaling Technology), stripped with stripping solution, and then re-probed with an antibody that recognizes total STAT1 (Cell Signaling Technology). Alternatively, membranes with identical samples were probed either with phospho-JAK or STAT1 or with an antibody that recognizes total JAK or STAT1. Immunoblotting was performed with a primary antibody, followed by an anti-rabbit HRP-conjugated IgG secondary antibody as a tracer. After being washed in TBS, the membranes were incubated in the luminol reagent and exposed to film.\nWestern blot was performed as described previously (Tan et al., 2002). Briefly, for the in vivo studies left hemispheres of mouse brains were lysed in ice-cold lysis buffer and an aliquot corresponding to 50 μg of total protein was electrophoretically separated using 16.5% Tris-tricine gels. Electrophoresed proteins were then transferred to PVDF membranes (BioRad), washed in dH2O, and blocked for 1 h at ambient temperature in Tris-buffered saline containing 5% (w/v) nonfat dry milk. […] Densitometric analysis was done using the Fluor-S MultiImager™ with Quantity One™ software (Bio-Rad). […]"}, "JAK1": {"tested_on": "JAK1", "assay": "JAK1 phosphorylation by Western blot in primary cultured neurons", "format": "cell-based, mouse", "protocol": "as §1, §2"}, "C57BL/6 mice [3]": {"tested_on": "C57BL/6 mice", "assay": "In vivo neurotoxicity, Bcl-xL/Bax Western blot of brain homogenates", "design": "species or system mouse", "details": "24 h", "description": "as §3, with “cannula. Correctness of the injection was confirmed by trypan blue dye administration and histological examination. The wounds were closed with 1-2 staples and mice were all observed until anesthesia had cleared.” for “cannula.”\nas §2"}, "[4]": {"tested_on": "primary cultured neuronal cells", "assay": "LDH release assay, primary cultured neurons challenged with gp120/Tat and IFN-γ", "format": "cell-based, mouse", "details": "for LDH release / Neuronal injury, LDH release: 12 h; for Neuronal injury, LDH release: JAK inhibitor 50 nM, IFN-γ 100 U/ml with gp120 or Tat 250 ng/ml", "protocol": "as §4, §5\nLOU release assay (Promega, Madison, Wis.) was performed as previously described (Tan et al., 2002). Briefly, after treatment at a variety of conditions, cell cultured media were collected for LOU release assay. Total LDH release was represent maximal lysis of target cells with 5% Triton X-100. Data are presented as mean±SD of LOU release."}, "[5]": {"details": "IFN-γ 100 U/ml, time-dependently"}, "[6]": {"details": "IFN-γ 100 U/ml added to gp120 or Tat 250 ng/ml"}, "[7]": {"details": "EGCG at a range of doses co-incubated with IFN-γ 100 U/ml, 60 min"}, "[8]": {"details": "EGCG 50 mg/kg i.p., i.c.v. IFN-γ/gp120 or IFN-γ/gp120/Tat"}, "[9]": {"details": "EGCG 20 μM, gp120 or Tat 500 ng/ml with IFN-γ 100 U/ml"}}, "note": "“Also recorded” adds a separate entry of the source."}
{"compound": "IFN-γ: murine recombinant IFN-γ; R&D Systems; type II interferon, soluble cytokine", "values": [{"measurement": "Phosphorylation of STAT1", "setting": "STAT1; [5]", "result": "stimulates phosphorylation"}, {"measurement": "Neuronal damage in cortical brain regions (NeuN)", "setting": "C57BL/6 mice [1]; i.c.v. IFN-γ 200 U/mouse plus gp120 500 ng/mouse vs controls, IFN alone or gp120 alone", "result": "marked increase"}, {"measurement": "Band density ratio of Bcl-xL to Bax", "setting": "[2]; [6]", "result": "reduced"}, {"measurement": "Phosphorylation of JAK1", "setting": "JAK1; [5]", "result": "stimulates phosphorylation"}, {"measurement": "Ratio of Bcl-xL to Bax in brain homogenates", "setting": "C57BL/6 mice [3]; i.c.v. IFN-γ 200 U/mouse with gp120 or Tat 500 ng/mouse", "result": "significant reduction"}, {"measurement": "LDH release", "setting": "[4]; [6]", "result": "significantly increased"}]}
{"compound": "CC(C)(C)c1nc2c3ccc(F)cc3c3c(=O)[nH]ccc3c2[nH]1", "note": "[JAK inhibitor, 2-(1,1-Dimethylethyl)-9-fluoro-3,6-dihydro-7H-benz[h] -imidaz[4,5-f] isoquinolin-7-one]", "values": [{"measurement": "Neuronal injury, Western blot band density ratio of Bcl-xL to Bax", "setting": "[2]", "result": "significantly inhibited"}, {"measurement": "Neuronal injury, Western blot band density ratio of Bcl-xL to Bax", "setting": "[2]; listed as JAK1 inhibitor", "result": "greatly reduced"}, {"measurement": "Cell death and apoptosis indicators (LDH, Bcl-xL/Bax) versus control treatment group", "setting": "[4]; JAK1 inhibitor, combination of gp120 and Tat included in the treatment", "result": "did not return to baseline levels"}, {"measurement": "Neuronal injury, LDH release", "setting": "[4]", "result": "significantly inhibited"}, {"measurement": "Neuronal injury, LDH release", "setting": "[4]; listed as JAK1 inhibitor", "result": "greatly reduced"}]}
{"compound": "(-)-epigallocatechin-3-gallate [EGCG]", "values": [{"measurement": "STAT1 phosphorylation", "setting": "STAT1; [7]", "result": "dose-dependent inhibition"}, {"measurement": "Neuronal damage in cortical regions (NeuN)", "setting": "C57BL/6 mice [1]; [8]", "result": "marked reduction; also recorded: protective"}, {"measurement": "Ratio of Bcl-xL to Bax", "setting": "[2]; [9]", "result": "increased"}, {"measurement": "JAK1 phosphorylation", "setting": "JAK1; [7]", "result": "dose-dependent inhibition"}, {"measurement": "Ratio of Bcl-xL to Bax in brain homogenates", "setting": "C57BL/6 mice [3]; [8]", "result": "significant increases"}, {"measurement": "LDH release", "setting": "[4]; [9]", "result": "decreased"}]}
